Target: T1, Estrogen receptor (Homo sapiens, UniProt P03372)
T1 sequence (P03372 whole entry): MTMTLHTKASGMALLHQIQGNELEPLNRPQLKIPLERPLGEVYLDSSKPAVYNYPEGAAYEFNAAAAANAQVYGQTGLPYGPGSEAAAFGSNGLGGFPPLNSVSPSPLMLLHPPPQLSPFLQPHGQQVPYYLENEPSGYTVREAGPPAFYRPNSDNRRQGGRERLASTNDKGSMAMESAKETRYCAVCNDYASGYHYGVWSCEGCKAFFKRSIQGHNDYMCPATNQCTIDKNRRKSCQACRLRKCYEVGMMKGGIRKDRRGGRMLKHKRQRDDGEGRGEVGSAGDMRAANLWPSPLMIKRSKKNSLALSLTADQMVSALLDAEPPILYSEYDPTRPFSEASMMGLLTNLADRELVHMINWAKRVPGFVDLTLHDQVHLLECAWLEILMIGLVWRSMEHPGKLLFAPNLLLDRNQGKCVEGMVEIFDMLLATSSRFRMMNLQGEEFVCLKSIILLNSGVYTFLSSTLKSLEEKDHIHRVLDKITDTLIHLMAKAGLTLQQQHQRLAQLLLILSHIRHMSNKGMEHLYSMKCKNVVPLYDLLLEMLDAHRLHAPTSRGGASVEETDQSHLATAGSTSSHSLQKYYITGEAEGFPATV
Test: Induction of ERalpha protein degradation in human MCF7 cells assessed as reduction in ERalpha protein levels incubated for 24 hrs by In-cell western assay
Settings: read-out: IC50 (the source's name)

DC50 [pM] | Compound
500 | CC(C)(C)OC(=O)N[C@@H](Cc1c[nH]c2ccccc12)C(=O)NCCCCOc1ccc(C(=C2C3CC4CC(C3)CC2C4)c2ccc(O)cc2)cc1
2000 | O=C(NCCCCOc1ccc(C(=C2C3CC4CC(C3)CC2C4)c2ccc(O)cc2)cc1)[C@H]1CC[C@H](C(F)(F)F)CC1
500 | O=C(NCCCCOc1ccc(C(=C2C3CC4CC(C3)CC2C4)c2ccc(O)cc2)cc1)[C@H]1C[C@@H]2C=C[C@H]1C2
